This is an account of results in article PMC5333395, “Assessing histone demethylase inhibitors in cells: lessons learned” (Epigenetics & Chromatin, 2017).

One test has as its target T1, KDM4B (Homo sapiens, UniProt O94953).
T1 sequence (O94953 1-1096): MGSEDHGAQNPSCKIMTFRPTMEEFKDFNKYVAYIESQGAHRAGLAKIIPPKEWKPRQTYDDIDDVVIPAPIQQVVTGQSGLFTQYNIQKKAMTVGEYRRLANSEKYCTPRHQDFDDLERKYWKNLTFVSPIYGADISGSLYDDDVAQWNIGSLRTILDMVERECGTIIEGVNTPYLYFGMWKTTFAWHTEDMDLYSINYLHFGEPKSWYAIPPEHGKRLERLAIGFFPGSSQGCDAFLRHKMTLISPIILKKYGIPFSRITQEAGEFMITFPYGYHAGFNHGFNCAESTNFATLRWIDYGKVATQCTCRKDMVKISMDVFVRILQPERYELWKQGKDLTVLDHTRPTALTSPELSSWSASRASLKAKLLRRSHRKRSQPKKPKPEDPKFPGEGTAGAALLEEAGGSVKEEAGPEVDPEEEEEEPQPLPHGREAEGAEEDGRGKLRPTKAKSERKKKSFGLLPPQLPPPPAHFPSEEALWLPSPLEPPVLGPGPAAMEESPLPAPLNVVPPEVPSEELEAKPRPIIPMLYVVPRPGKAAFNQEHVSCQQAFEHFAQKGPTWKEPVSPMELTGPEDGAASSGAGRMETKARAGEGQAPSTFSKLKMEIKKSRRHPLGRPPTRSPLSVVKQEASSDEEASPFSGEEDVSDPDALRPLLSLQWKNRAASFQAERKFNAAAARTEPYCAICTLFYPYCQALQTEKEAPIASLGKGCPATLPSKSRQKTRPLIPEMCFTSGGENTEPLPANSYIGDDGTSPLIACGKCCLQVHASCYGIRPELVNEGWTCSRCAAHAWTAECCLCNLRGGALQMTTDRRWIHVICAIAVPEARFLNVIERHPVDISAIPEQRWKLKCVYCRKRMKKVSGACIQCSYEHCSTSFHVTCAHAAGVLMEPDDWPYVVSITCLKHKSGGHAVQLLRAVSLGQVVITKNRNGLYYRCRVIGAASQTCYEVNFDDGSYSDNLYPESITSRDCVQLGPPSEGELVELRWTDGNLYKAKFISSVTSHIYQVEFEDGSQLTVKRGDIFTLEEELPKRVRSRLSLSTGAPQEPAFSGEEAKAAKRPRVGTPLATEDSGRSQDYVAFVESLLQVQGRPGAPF
Kind of test: High-content immunofluorescence (IF) assay, overexpressed full-length FLAG-tagged KDM in HeLa cells. Type of test: cell-based. Conditions: HeLa cells overexpressing WT KDM4B, H3K9me3 mark, 24 h; read-out: KDM4B, in cells, EC50 by IF assay (head: IC50). As for the experimental part: (§1) HeLa cells (ATCC) were cultured at 37 °C and 5% CO2 in Minimal Essential Media—Eagle (Sigma-Aldrich, UK) supplemented with 10% heat-inactivated foetal calf serum (FCS) (Gibco, UK), and 1% L-glutaMAX (Gibco, UK) in T75 flasks (Sarstedt, UK) and passaged regularly with TrypLE (Life Technologies, UK) before cells reached confluence. On day 0, 7000 cells per well were plated on a 96-well clear bottom CellCarrier plate (PerkinElmer, UK). The next day the cells were transfected with Lipofectamine 3000 (ThermoFisher Scientific, UK) following the manufacturer’s instructions. Briefly, 0.1 µg of plasmid DNA (encoding for the respective demethylase) and 0.15 µL of Lipofectamine 3000 were diluted in separate tubes containing 5 µL OptiMEM. 0.15 µL of P3000 was added to the tube with the DNA. The two solutions were then mixed gently and allowed to incubate for 5 min at room temperature. Next, the DNA-lipid complex was added to the cells for 4 h at 37 °C and 5% CO2.
(§2) Compound dilutions were made in a 96-well PCR plate (Starlab, UK). The culture medium was supplemented with 0.4% DMSO so that the solvent concentration was maintained throughout. Compounds were serially diluted at a 1:2 or 1:3 dilution ratio. Next, the cell culture plate was removed from the incubator and the medium was gently aspirated and replaced with the fresh medium containing diluted compounds.
(§3) Then cells were rinsed once with PBS and blocked for 30 min at room temperature using 3% v/v foetal calf serum diluted in PBS.

The next test addresses T2, KDM4C (Homo sapiens, UniProt Q9H3R0).
T2 sequence (Q9H3R0 1-1056): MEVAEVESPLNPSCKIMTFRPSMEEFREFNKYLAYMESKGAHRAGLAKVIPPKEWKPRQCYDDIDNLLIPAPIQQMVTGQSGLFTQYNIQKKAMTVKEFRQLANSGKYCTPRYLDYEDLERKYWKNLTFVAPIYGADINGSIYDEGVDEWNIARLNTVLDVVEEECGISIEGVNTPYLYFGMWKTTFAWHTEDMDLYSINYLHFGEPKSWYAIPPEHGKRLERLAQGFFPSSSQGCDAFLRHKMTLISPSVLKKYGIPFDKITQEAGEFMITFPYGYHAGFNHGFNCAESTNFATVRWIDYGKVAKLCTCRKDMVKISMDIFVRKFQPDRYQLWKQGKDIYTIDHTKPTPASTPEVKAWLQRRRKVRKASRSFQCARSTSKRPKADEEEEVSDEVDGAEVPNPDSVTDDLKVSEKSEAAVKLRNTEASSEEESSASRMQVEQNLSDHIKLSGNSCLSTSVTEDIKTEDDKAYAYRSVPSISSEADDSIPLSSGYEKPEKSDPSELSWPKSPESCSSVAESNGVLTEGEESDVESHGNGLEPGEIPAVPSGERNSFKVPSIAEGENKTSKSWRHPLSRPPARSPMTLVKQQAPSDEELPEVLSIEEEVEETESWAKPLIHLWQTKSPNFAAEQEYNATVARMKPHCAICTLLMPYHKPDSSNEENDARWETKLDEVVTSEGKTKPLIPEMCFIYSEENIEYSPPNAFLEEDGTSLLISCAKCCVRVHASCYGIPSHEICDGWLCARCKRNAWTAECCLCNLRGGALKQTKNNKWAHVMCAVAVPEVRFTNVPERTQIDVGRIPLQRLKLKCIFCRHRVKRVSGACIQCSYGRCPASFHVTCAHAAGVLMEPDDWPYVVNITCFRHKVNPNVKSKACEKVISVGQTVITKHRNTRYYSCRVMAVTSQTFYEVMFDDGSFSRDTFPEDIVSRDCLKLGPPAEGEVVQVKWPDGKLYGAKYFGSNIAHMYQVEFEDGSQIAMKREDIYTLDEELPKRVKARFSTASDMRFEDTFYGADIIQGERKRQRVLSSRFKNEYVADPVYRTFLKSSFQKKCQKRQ
The description is as above. Type of test: cell-based. Conditions: HeLa cells overexpressing WT KDM4C, H3K9me3 mark, 24 h; read-out: KDM4C, in cells, EC50 by IF assay (head: IC50). As for the experimental part:
as §1, §2, §3

Broadly, the EC50 is the concentration needed to bring the measured effect to its halfway point.

Structures are written as SMILES. Some results are limits rather than exact numbers.

Regarding `CCOC(=O)c1ccnc(CNCC(=O)N(CC)CCN(C)C)c1` [KDOAM-21], the EC50 on KDM4B came out at 10 µM; at KDM4C it was 17.9 µM.

Regarding `CCN(CCN(C)C)C(=O)CNCc1cncc(C(N)=O)c1` [KDOAM-32], the EC50 on KDM4B and on KDM4C was more than 100 µM each time.
